Counter-ions that a name gives are not always drawn.
Molecular target: T1, 5-HT2C receptor (Homo sapiens, UniProt P28335)
T1 construct: host or cells: U2OS
Test: Human 5-HT2C functional assay (beta-arrestin2 recruitment, U2OS_HTR2C_β-Arrestin cells)
Format: cell-based
Conditions: for EC50: beta-arrestin2 recruitment, U2OS_HTR2C_β-Arrestin cells, 1.5 h incubation, read-out: EC50 5-HT2C (potency in functional assay); for Emax: relative efficacy vs response to 10 μM 5-HT or maximal 5-HT effect (100%)
Experimental: The functional activity of compounds of formula I was assayed by incubation with U2OS_HTR2C_β-Arrestin cells (DiscoverX, 93-0289C3) to induce beta-arrestin2 recruitment to the 5-HT2C receptor. The agonist-induced recruitment and proximity of the receptor and beta-arrestin2 leads to complementation and formation of active β-galactosidase. The enzyme complementation results in enzyme activity, which is measured following the termination of the agonist incubation using DiscoveRx's detection reagent, which contains a chemiluminescent substrate which produces a high intensity signal. Cells were plated and a medium-change to a 1% serum containing medium was performed 24h later. The next day, test compounds were added and incubated for 1.5 h before addition of detection reagent.
The response produced was measured and compared with the response produced by 10 [mu]M 5-HT or the maximal effect induced by 5-HT (defined as 100%) to which it was expressed as a percentage response (relative efficacy). Dose response curves were constructed using Graphpad Prism (Graph Software Inc.) or using in house adapted software using a 4 parameter dose response model with variable slope (fit=(Bottom+(Top-Bottom)/(1+10^∧((Log EC50−x)*HillSlope))res=(y-fit)). Results are compiled in the table below.

T1 sequence (P28335 33-458): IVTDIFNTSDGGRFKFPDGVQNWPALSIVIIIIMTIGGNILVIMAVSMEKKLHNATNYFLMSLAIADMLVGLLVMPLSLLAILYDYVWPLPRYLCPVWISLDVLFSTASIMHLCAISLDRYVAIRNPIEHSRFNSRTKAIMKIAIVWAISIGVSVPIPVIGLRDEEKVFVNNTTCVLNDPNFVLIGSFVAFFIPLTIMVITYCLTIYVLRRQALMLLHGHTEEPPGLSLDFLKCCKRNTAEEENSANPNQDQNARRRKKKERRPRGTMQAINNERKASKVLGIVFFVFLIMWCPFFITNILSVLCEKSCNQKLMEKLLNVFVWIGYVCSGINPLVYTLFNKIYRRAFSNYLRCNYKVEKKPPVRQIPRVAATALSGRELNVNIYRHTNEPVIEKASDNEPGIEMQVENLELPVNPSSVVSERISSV
T1 sequence (P32121 whole entry partner): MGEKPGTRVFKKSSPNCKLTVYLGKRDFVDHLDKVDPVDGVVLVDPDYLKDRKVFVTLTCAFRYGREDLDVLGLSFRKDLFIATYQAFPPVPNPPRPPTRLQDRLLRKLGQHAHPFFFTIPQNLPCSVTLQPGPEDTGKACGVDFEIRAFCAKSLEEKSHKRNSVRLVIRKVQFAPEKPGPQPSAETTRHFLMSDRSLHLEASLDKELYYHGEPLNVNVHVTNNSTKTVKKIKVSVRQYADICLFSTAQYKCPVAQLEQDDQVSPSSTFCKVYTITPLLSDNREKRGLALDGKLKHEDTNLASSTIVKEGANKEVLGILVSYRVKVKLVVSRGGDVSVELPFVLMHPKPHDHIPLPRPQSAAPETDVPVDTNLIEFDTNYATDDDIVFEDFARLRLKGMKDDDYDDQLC

| SMILES | EC50 [nM] | Emax [%] |
| --- | --- | --- |
| COc1nc(OC(C)C(F)(F)C(F)(F)F)c(F)cc1CNC(=O)[C@@H]1CCCN1 (stereo partly drawn) [Example 50, (2S)—N-[[5-Fluoro-2-methoxy-6-(2,2,3,3,3-pentafluoro-1-methyl-propoxy)-3-pyridyl]methyl]pyrrolidine-2-carboxamide; Succinic Acid] | < 20 | > 70 |
| COc1nc(OCC2CC2(F)F)c(F)cc1CNC(=O)[C@@H]1CCCN1 (stereo partly drawn) [Example 41, (2S)—N-[[6-[(2,2-Difluorocyclopropyl)methoxy]-5-fluoro-2-methoxy-3-pyridyl]methyl]pyrrolidine-2-carboxamide; Succinic Acid] | < 20 | > 70 |
| COc1nc(OC2CC3C(C2)C3(F)F)c(F)cc1CNC(=O)C1CCCN1C (stereo not drawn) [Example 64, N-[[6-[(6,6-Difluoro-3-bicyclo[3.1.0]hexanyl)oxy]-5-fluoro-2-methoxy-3-pyridyl]methyl]-1-methyl-pyrrolidine-2-carboxamide Dihydrochloride] | < 20 | > 70 |
| COc1nc(OC2CCC(F)(F)C2)c(F)cc1CN(C)C(=O)[C@@H]1CCCN1 (stereo partly drawn) [Example 123, (2S)—N-[[6-(3,3-Difluorocyclopentoxy)-5-fluoro-2-methoxy-3-pyridyl]methyl]-N-methyl-pyrrolidine-2-carboxamide Hydrochloride] | < 20 | 50 to 70 |
| COc1nc(OCc2ccc(F)cc2)c(F)cc1CN(C)C(=O)[C@@H]1CCCN1 [Example 124, (2S)—N-[[5-Fluoro-6-[(4-fluorophenyl)methoxy]-2-methoxy-3-pyridyl]methyl]-N-methyl-pyrrolidine-2-carboxamide Hydrochloride] | 20 to 200 | 50 to 70 |
| COc1nc(O[C@H]2C[C@@H](C(F)(F)F)C2)c(F)cc1CN(C)C(=O)[C@@H]1CCCN1 [Example 121, (2S)—N-[[5-Fluoro-2-methoxy-6-[cis-3-(trifluoromethyl)cyclobutoxy]-3-pyridyl]methyl]-N-methyl-pyrrolidine-2-carboxamide Hydrochloride] | < 20 | 50 to 70 |
| COc1nc(OC2CCC(C(F)(F)F)CC2)c(F)cc1CNC(=O)[C@H]1NC[C@@H]2C[C@@H]21 (stereo partly drawn) [Example 85, (1R,4S,5S)—N-[[5-Fluoro-2-methoxy-6-[4-(trifluoromethyl)cyclohexoxy]-3-pyridyl]methyl]-3-azabicyclo[3.1.0]hexane-4-carboxamide Hydrochloride] | < 20 | 30 to 50 |
| COc1nc(O[C@H]2CC[C@H](C(F)(F)F)CC2)c(F)cc1CNC(=O)[C@H]1NC[C@@H]1C [Example 80, (2S,3 S)—N-[[5-Fluoro-2-methoxy-6-[4-(trifluoromethyl)cyclohexoxy]-3-pyridyl]methyl]-3-methyl-azetidine-2-carboxamide; Fumaric Acid] | 20 to 200 | > 70 |
| COc1nc(NCC2CCC(C(F)(F)F)CC2)c(F)cc1CNC(=O)[C@@H]1CCCN1 (single isomer, unassigned) [Example 149] | 20 to 200 |  |
| COc1nc(OC[C@@H]2CCC(F)(F)C2)c(F)cc1CNC(=O)[C@@H]1CCCN1C [Example 16, (2S)—N-[[6-[[(1R)-3,3-Difluorocyclopentyl]methoxy]-5-fluoro-2-methoxy-3-pyridyl]methyl]-1-methyl-pyrrolidine-2-carboxamide] | < 20 | > 70 |
| COc1nc(CC2CCCCC2)c(F)cc1CNC(=O)[C@@H]1CCCN1 [Example 129, (2S)—N-[[6-(Cyclohexylmethyl)-5-fluoro-2-methoxy-3-pyridyl]methyl]pyrrolidine-2-carboxamide] | < 20 | > 70 |
| COc1nc(OCc2cc(F)cc(F)c2)c(F)cc1CNC(=O)[C@@H]1CCCN1 [Example 5, (S)—N-((6-((3,5-Difluorobenzyl)oxy)-5-fluoro-2-methoxypyridin-3-yl)methyl)pyrrolidine-2-carboxamide Hydrochloride] | < 20 | > 70 |
| COc1nc(C(F)(F)C(Cl)c2ccccc2)c(F)cc1CN(C)C(=O)C1CCCN1 (stereo not drawn) [Example 192, N-[[6-(2-Chloro-1,1-difluoro-2-phenyl-ethyl)-5-fluoro-2-methoxy-3-pyridyl]-methyl]-N-methyl-pyrrolidine-2-carboxamide Dihydrochloride] | 200 to 1000 | 50 to 70 |
| COc1nc(OCCC(F)(F)C(F)(F)F)c(F)cc1CNC(=O)[C@@H]1CCCN1 [Example 45, (2S)—N-[[5-Fluoro-2-methoxy-6-(3,3,4,4,4-pentafluorobutoxy)-3-pyridyl]methyl]-pyrrolidine-2-carboxamide; Succinic Acid] | < 20 | > 70 |
| COc1nc(OCC(F)(C(F)(F)F)C(F)(F)F)c(F)cc1CNC(=O)[C@@H]1CCCN1 [Example 69, (S)—N-((5-Fluoro-2-methoxy-6-(2,3,3,3-tetrafluoro-2-(trifluoromethyl)propoxy)pyridin-3-yl)methyl)pyrrolidine-2-carboxamide Hydrochloride] | < 20 | > 70 |
| COc1nc(OCC23CC(C2)C3)c(F)cc1CNC(=O)[C@@H]1CCCN1 [Example 22, (S)—N-((6-(Bicyclo[1.1.1]pentan-1-ylmethoxy)-5-fluoro-2-methoxypyridin-3-yl)methyl)pyrrolidine-2-carboxamide Hydrochloride] | < 20 | > 70 |
| COc1nc(OC2CCC(F)(F)CC2)c(F)cc1CNC(=O)[C@@H]1CCN1C [Example 39, (2S)—N-[[6-(4,4-Difluorocyclohexoxy)-5-fluoro-2-methoxy-3-pyridyl]methyl]-1-methyl-azetidine-2-carboxamide; Succinic Acid] | 20 to 200 | 50 to 70 |
| COc1nc(N2C[C@@H]3CC(F)(F)C[C@@H]3C2)c(F)cc1CNC(=O)[C@@H]1CCCN1 [Example 181, (2S)—N-[[6-[(3aR,6aS)-5,5-Difluoro-1,3,3a,4,6,6a-hexahydrocyclopenta[c]pyrrol-2-yl]-5-fluoro-2-methoxy-3-pyridyl]methyl]pyrrolidine-2-carboxamide; 2,2,2-trifluoroacetic Acid] | < 20 |  |
| COc1nc(OC2CCC(OC(F)F)CC2)c(F)cc1CNC(=O)[C@@H]1CCCN1 (stereo partly drawn) [Example 67, (2S)—N-[[6-[4-(Difluoromethoxy)cyclohexoxy]-5-fluoro-2-methoxy-3-pyridyl]-methyl]pyrrolidine-2-carboxamide] | < 20 | > 70 |
| COc1nc(OC2CCCCC2C(F)(F)F)c(F)cc1CNC(=O)[C@@H]1CCCN1 (stereo partly drawn) [Example 57, (2S)—N-[[5-Fluoro-2-methoxy-6-[2-(trifluoromethyl)cyclohexoxy]-3-pyridyl]methyl]pyrrolidine-2-carboxamide; 2,2,2-trifluoroacetic Acid] | < 20 | > 70 |
| COc1nc(OCC23CC4CC(CC(C4)C2)C3)c(F)cc1CNC(=O)[C@@H]1CCCN1 [Example 70, (2S)—N-[[6-(1-Adamantylmethoxy)-5-fluoro-2-methoxy-3-pyridyl]methyl]-pyrrolidine-2-carboxamide; 2,2,2-trifluoroacetic Acid] | < 20 | > 70 |
| COc1nc(OC2CCC(F)(F)CC2)c(F)cc1CNC(=O)[C@@H]1C=CCN1C [Example 21, (2S)—N-[[6-(4,4-Difluorocyclohexoxy)-5-fluoro-2-methoxy-3-pyridyl]methyl]-1-methyl-2,5-dihydropyrrole-2-carboxamide] | 20 to 200 | > 70 |
| COc1nc(N2CCCC2)c(F)cc1CNC(=O)[C@@H]1CCCN1 [Example 135, (2S)—N-[(5-Fluoro-2-methoxy-6-pyrrolidin-1-yl-3-pyridyl)methyl]pyrrolidine-2-carboxamide; 2,2,2-trifluoroacetic Acid] | 20 to 200 | > 70 |
| COc1nc(OCc2cc(F)cc(F)c2)c(F)cc1CN(C)C(=O)[C@@H]1CCCN1 [Example 122, (2S)—N-[[6-[(3,5-Difluorophenyl)methoxy]-5-fluoro-2-methoxy-3-pyridyl]methyl]-N-methyl-pyrrolidine-2-carboxamide Hydrochloride] | < 20 | > 70 |
| COc1nc(O[C@H]2C[C@H](C(F)(F)F)C2)c(F)cc1CN(C)C(=O)[C@@H]1CCCN1 [Example 120, (2S)—N-[[5-Fluoro-2-methoxy-6-[trans-3-(trifluoromethyl)cyclobutoxy]-3-pyridyl]-methyl]-N-methyl-pyrrolidine-2-carboxamide Hydrochloride] | < 20 | 50 to 70 |

Source: patent US20190062305A1, “PYRIDYL OR PYRAZINYL COMPOUNDS CARRYING A METHYL-BOUND ALPHA-AMINO ACID AMIDE GROUP” (ABBVIE DEUTSCHLAND GMBH & CO. KG, priority 2015, published 2019)
